Test results as given in patent US5612188A, “Automated, multicompartmental cell culture system” (Cornell Research Foundation, Inc., priority 1994, dated 1997).
Like-named read-outs stand apart in the source and are kept apart here.

Experiments:
[1] = 45 mg/kg, 72 hours; cited from earlier work
[2] = system: sheep liver glutathione-S-arene oxide transferase; assay: Km's for conjugation of GSH and naphthalene oxide, partially purified transferase; assay type: in vitro ADME; settings: one-half of value for racemic naphthalene oxide, pH 7.4, read-out: Km for 1R, 2S-- or 1S, 2R-- NO (conjugation with GSH)
Excerpt: (§1) The rate of reaction of naphthalene oxide with GSH is assumed to be of the form V=Vmax*{1GSH/(GSH+Kml)}*{NO/(NO+Km2)}. […] Work with partially purified sheep liver glutathione-S-arene oxide transferase has provided Km's for conjugation of GSH and racemic naphthalene oxide at pH 7.4 (Hayakawa, T., LeMahieu, R. A., and Udenfriend, S., "Studies on Glutathione-S-arene Oxide Transferase--a Sensitive Assay", Arch. Biochem. Biophys. 162: 223-230 (1974), which is hereby incorporated by reference). Individual glutathione-S-transferase isozymes are enantioselective with respect to naphthalene oxide (O'Brien, K. A. F., Suverkropp, C., Kanekal, S., Plopper, C. G., and Buckpitt, A. R., "Tolerance to Multiple Doses of the Pulmonary Toxicant, Naphthalene", Toxicol. Appl. Pharmacol. 99: 487-500 (1989), which is hereby incorporated by reference), but GSH conjugation proceeds equally fast with 1R, 2S- and 1S, 2R-naphthalene oxide (Buonarati, M., Jones, A. D., and Buckpitt, A., "In vivo Metabolism of Isomeric Naphthalene Oxide Glutathione Conjugates", Drug Metab. Dispos. 18: 183-189 (1990), which is hereby incorporated by reference). Therefore Vmax's for conjugation with each enantiomer are assumed equal, and the Km for reaction with each enantiomer is assumed to be one-half of the value reported for racemic naphthalene oxide.

H4IIE cells = assay: Viability of H4IIE hepatoma cells after 24 hr BrdU exposure and 30 sec UV light in the multicompartmental cell culture system (trypan blue); assay type: cell-based, rat
Method: A rat hepatoma cell line, H4IIE obtained from the American Type Culture Collection (Bethesda, Md.), was cultured in RPMI Medium 1640 with 5 percent fetal calf serum, L-glutamine and antibiotics (penicillin G, streptomycin and amphotericin B) (Gibco Island, N.Y.). Cells were seeded 24 hr before the experiment. Attachment of H4IIE cells occurs several hours following seeding. Density was approximately 20 percent of confluence at the start of the experiment.
The multicompartmental cell culture system ("MCCS") of the present invention was used to expose both normal and transformed cells to an antineoplastic compound simultaneously. The volume of distribution of the system was 500 mL. Each compartment (T-flask, Becton Dickinson, Lincoln Park, N.J.) contained 75 mL of cell culture medium (RPMI 1640 as previously described). The flow rate was set at 5 mL per min. and maintained by means of a peristaltic pump (Millipore, Bedford, Mass.). The entire system was placed inside a Forma Scientific water-jacketed incubator (Fisher Scientific, Philadelphia, Pa.) set at 37° C. with 5 percent CO2. […]
(§2) Following the 24 hr. exposure period, both human lymphocytes and rat hepatoma cells were exposed to a UV light source for 30 sec. Viable cells were determined and enumerated by trypan blue dye exclusion on a hemacytometer immediately following UV exposure.

human lymphocytes = assay: Viability of human lymphocytes after 24 hr BrdU exposure and 30 sec UV light in the multicompartmental cell culture system (trypan blue); assay type: cell-based; settings: 750 mg BrdU in 500 mL system
Method: Approximately 14 mL of freshly drawn human blood were collected into EDTA tubes (Becton Dickinson, Lincoln Park, N.J.). To this blood sample was added 4 mL of Hanks balanced salt solution. Two and one-half mL of the blood solution was layered onto 3 mL of ficoll (Pharmacia, Piscataway, N.J.) and centrifuged at 1500 rpm for 20 min at ambient temperature. The pellet was washed in an equal volume of Hanks balanced salt solution and recentrifuged. All lymphocytes collected from the 14 mL blood sample were seeded into 100 mL of RPMI 1640 (Gibco, Grand Island, N.Y.) and placed in a Forma Scientific water-jacketed incubator (Fisher Scientific, Philadelphia, Pa.) set at 37° C. with 5 percent CO2 overnight.
The multicompartmental cell culture system ("MCCS") of the present invention was used to expose both normal and transformed cells to an antineoplastic compound simultaneously. The volume of distribution of the system was 500 mL. Each compartment (T-flask, Becton Dickinson, Lincoln Park, N.J.) contained 75 mL of cell culture medium (RPMI 1640 as previously described). […]
as §2

[3] = system: sheep liver glutathione-S-arene oxide transferase; settings: read-out: Km for GSH, pH 7.4, cited from earlier work
[4] = non-enzymatic; cited from earlier work
[5] = system: lung microsomes and cytosolic protein; assay: Conjugation of naphthalene oxide with GSH, mouse lung; assay type: in vitro ADME; settings: assumed equal for each enantiomer
Excerpt: as §1

[6] = system: liver microsomes and cytosolic protein; assay: Conjugation of naphthalene oxide with GSH, mouse liver; assay type: in vitro ADME; settings: assumed equal for each enantiomer
Excerpt: as §1

lung microsomes [7] = assay: Conjugation of naphthalene oxide with GSH, rat lung; assay type: in vitro ADME; design: unit not given here; settings: assumed equal for each enantiomer
Excerpt: (§3) Determination of Vmax's and Km's for naphthalene oxide production and Vmax's for GSH conjugates and dihydrodiol production in rat microsomes were done in the same way as for the mouse. Sources of data were Buckpitt, et al, 1987, supra, Hesse, S. and Mezger, M., "Involvement of Phenolic Metabolites in the Irreversible Protein-binding of Aromatic Hydrocarbons: Reactive Metabolites of [^14 C]-naphthalene and [^14 C] 1-naphthol Formed by Rat Liver Microsomas", Mol. Pharmacol. 16: 667-675 (1979) which is hereby incorporated by reference, O'Brien et al., 1985, supra, van Bladeren et al., 1985, supra, and Yost, G. S., Buckpitt, A. R., Roth, R. A., and McLemore, T. L., "Mechanisms of Lung Injury by Systematically Administered Chemicals", Toxicol. Appl. Pharmacol. 101: 179-195 (1989), which is hereby incorporated by reference.

liver microsomes [8] = assay: Conjugation of naphthalene oxide with GSH, rat liver; assay type: in vitro ADME; design: unit not given here; settings: assumed equal for each enantiomer
Excerpt: as §3

protein = assay: Covalent binding of naphthalene oxide to protein in hepatocytes; assay type: in vitro ADME; settings: non-enzymatic; from hepatocyte incubations
Method: The first order rate constant for non-enzymatic rearrangement of naphthalene oxide to 1-naphthol has been reported (van Bladeran et al., 1985, supra). The rate of covalent binding was determined from data reported for incubations of hepatocytes with naphthalene oxide (Buonarati et al., 1989, supra).

lung microsomes [9] = settings: 48 hours after xylene; cited from earlier work
liver GSH = settings: 48 hours after xylene; cited from earlier work
liver microsomes [10] = settings: 48 hours after xylene; cited from earlier work

For `Oc1cccc2ccccc12` [1 naphthol, 1-Naphthol], the “percent of dose recovered” value [1] is listed as “Eighty-one”.
`C1=C[C@@H]2O[C@@H]2c2ccccc21` [1R, 2S NO, 1R, 2S-naphthalene oxide] gave a Km ([2]; Mouse) of 50 µM and a Km ([2]; Rat) of 50 µM.
In the case of `C1=C[C@H]2O[C@H]2c2ccccc21` [1S, 2R NO, 1S, 2R-naphthalene oxide], the Km ([2]; Mouse) is reported as 50 µM and the Km ([2]; Rat) is reported as 50 µM.
With `O=c1[nH]c(=O)n([C@H]2C[C@H](O)[C@@H](CO)O2)cc1Br` [BrdU, 5-bromo-2'-deoxyuridine] the “viable H4IIE cells following UV exposure” value (H4IIE cells; 750 mg BrdU in 500 mL system, 30 sec UV) was “fifty-three”, the “uptake of BrdU by hepatoma cells versus lymphocytes” value (H4IIE cells; MCCS, inferred from killing) was “greater uptake of the BrdU by the hepatoma cells than the lymphocytes” and the “viable human lymphocytes following UV exposure” value (human lymphocytes) was “Eighty-nine”.
For `N[C@@H](CCC(=O)N[C@@H](CS)C(=O)NCC(=O)O)C(=O)O` [GSH, glutathione], the Km ([3]; Mouse) is listed as 3300 µM and the Km ([3]; Rat) is listed as 3300 µM.
In the case of `C1=CC2OC2c2ccccc21` (stereo not shown) [NO, naphthalene oxide], the “First order rate constant for rearrangement to 1-napthol” value [4] is given as 0.25 min⁻¹, the “Vmax, conjugation with GSH” value [5] is given as 22.5 nmol/mg/min and the “Vmax, conjugation with GSH” value [6] is given as 150 nmol/mg/min. For the same molecule, the “Vmax, conjugation with GSH” value (lung microsomes [7]) was 400, the “Vmax, conjugation with GSH” value (liver microsomes [8]) was 500 and the Binding to protein (protein) was 0.2 pmole/mg/min/μM NO.
For xylene, the “metabolism of naphthalene by lung microsomes, percent of the normal rate” value (lung microsomes [9]) is listed as 56%, the GSH levels (liver GSH) is listed as “return to normal” and the “metabolism of naphthalene by liver microsomes” value (liver microsomes [10]) is listed as “return to normal”.
